{
  "source": "patent US6538037B2",
  "about": "“Methods for preparation and use of 1α,24(S)-dihydroxyvitamin D2” (Bone Care International, Inc., priority 1991, dated 2003)",
  "key": {"[1]": {"target": "T1, vitamin D serum binding protein (DBP) (Rattus norvegicus, UniProt P04276)", "T1 construct": "assessed using vitamin D deficient rat serum; from tissue; host or cells: vitamin D deficient rat serum", "T1 sequence (P04276 17-476)": "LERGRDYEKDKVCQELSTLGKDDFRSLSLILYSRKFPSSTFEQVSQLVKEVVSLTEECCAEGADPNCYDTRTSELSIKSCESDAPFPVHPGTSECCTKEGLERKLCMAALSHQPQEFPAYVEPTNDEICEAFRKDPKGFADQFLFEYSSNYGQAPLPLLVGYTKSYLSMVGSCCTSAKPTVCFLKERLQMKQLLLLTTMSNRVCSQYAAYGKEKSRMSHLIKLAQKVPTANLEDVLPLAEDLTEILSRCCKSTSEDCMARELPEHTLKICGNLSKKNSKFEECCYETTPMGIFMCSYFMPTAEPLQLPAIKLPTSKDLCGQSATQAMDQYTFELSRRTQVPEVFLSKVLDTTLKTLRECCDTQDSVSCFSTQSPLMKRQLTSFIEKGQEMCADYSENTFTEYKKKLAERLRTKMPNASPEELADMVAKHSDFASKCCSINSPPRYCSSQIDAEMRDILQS", "assay": "Affinity for vitamin D serum binding protein using vitamin D deficient rat serum", "source_text": "In addition, the weak binding by the DBP was indicative of more rapid clearance, allowing for low toxicity."}, "[2]": {"assay": "Blood metabolite levels in osteoporotic women administered 1α-OH-D2", "format": "in vivo, human", "protocol": "An increase in the production of 1α,24(S)-(OH)2D2 relative to 1α,25-(OH)2D2 has also been observed by the present inventors in human females who received 1α-OH-D2 as part of an investigation of that drug for the treatment of osteoporosis. Following either a single dose of 2 μg of 1α-OH-D2 or daily doses of 8 μg/day for one week, blood was collected and analyzed for the metabolites 1α,24(S)-(OH)2D2 and 1α,25-(OH)2D2. Lipid was extracted from the blood, and the metabolites were purified by HPLC using standard methods and quantified with the radioreceptor assay produced by Incstar (Stillwater, Minn.). One day after a single 2 μg dose, the level of 1α,24(S)-(OH)2D2 was undetectable with the 1α,25-(OH)2D2 level being approximately 11 pg/ml. In contrast, one day following the last dose of 8 μg, the level of 1α,24(S)-(OH)2D2 averaged 9 pg/mL with the 1α,25-(OH)2D2 level averaging 30 pg/mL."}, "[3]": {"assay": "Dose ranging study in postmenopausal osteoporotic women", "format": "in vivo, human", "settings": "oral 0.5 to 8.0 μg/day, five weeks", "protocol": "Twenty postmenopausal osteoporotic women are enrolled in an open label study.\nIn admission to the study, all patients receive instruction on selecting a daily diet containing 400 to 600 mg of calcium. Compliance to this diet is verified at weekly intervals by 24-hour food records and by interviews with each patient.\nAll patients complete a one-week baseline period, a five-week treatment period, and a one-week post-treatment observation period. During the treatment period, patients orally self-administer 1α,24(S)-dihydroxyvitamin D2 at an initial dose of 0.5 μg/day for the first week, and at successively higher doses of 1.0, 2.0, 4.0, and 8.0 μg/day in each of the following four weeks. All doses are administered before breakfast.\nBlood and urine chemistries are monitored on a weekly basis throughout the study. Key blood chemistries include fasting serum levels of calcium, phosphorus, osteocalcin, creatinine, and blood urea nitrogen. Key urine chemistries include 24-hour excretion of calcium, phosphorus, and creatinine."}, "[4]": {"assay": "Preventive treatment of bone mass loss in postmenopausal osteoporotic women", "format": "in vivo, human", "settings": "at or above 1.0 μg/day, 24 to 36 months", "protocol": "A clinical study is conducted with postmenopausal osteoporotic out-patients having ages between 55 and 75 years. The study involves up to 120 patients randomly divided into three treatment groups and continues for 24 to 36 months. Two of the treatment groups receive constant dosages of 1α,24(S)-dihydroxyvitamin D2 (u.i.d.; two different dose levels at or above 1.0 μg/day) and the other group receives a matching placebo. All patients maintain a normal intake of dietary calcium (500 to 800 mg/day) and refrain from using calcium supplements. Efficacy is evaluated by pre-and post-treatment comparisons of the patient groups with regard to (a) total body calcium retention, and (b) radial and spinal bone mineral density as determined by dual-photon absorptiometry (DPA) or dual-energy x-ray absorptiometry (DEXA). Safety is evaluated by comparisons of urinary hydroxyproline excretion, serum and urine calcium levels, creatinine clearance, blood urea nitrogen, and other routine determinations."}, "[5]": {"assay": "Prophylaxis of postmenopausal bone loss", "format": "in vivo, human", "settings": "at or above 1.0 μg/day, 24 to 36 months", "protocol": "A clinical study is conducted with healthy postmenopausal women having ages between 55 and 60 years. The study involves up to 80 patients randomly divided into two treatment groups, and continues for 24 to 36 months. One treatment group receives a constant dosage of 1α,24(S)-dihydroxyvitamin D2 (u.i.d.; a dose level at or above 1.0 μg/day) and the other receives a matching placebo. The study is conducted as indicated in Example 2 above."}, "[6]": {"assay": "Hypocalcemia and metabolic bone disease in chronic hemodialysis patients", "format": "in vivo, human", "settings": "greater than 3.0 μg/day", "protocol": "A twelve-month, double-blind, placebo-controlled clinical trial is conducted with thirty men and women with renal disease who are undergoing chronic hemodialysis. All patients enter an 8-week control period during which time they receive a maintenance dose of Vitamin D3 (400 IU/day). After this control period, the patients are randomized into two treatment groups: one group receives a constant dosage of 1α,24(S)-dihydroxyvitamin D2 (u.i.d.; a dosage greater than 3.0 μg/day) and the other group receives a matching placebo. Both treatment groups receive a maintenance dosage of Vitamin D3, maintain a normal intake of dietary calcium, and refrain from using calcium supplements. Efficacy is evaluated by pre- and post-treatment comparisons of the two patient groups with regard to (a) direct measurements of intestinal calcium absorption, (b) total body calcium retention, (c) radial and spinal bone mineral density, or (d) determinations of serum calcium. Safety is evaluated by regular monitoring of serum calcium."}},
  "note": "Where two headings read alike, the source gives them in different places.",
  "data": [
    {"smiles": "C=C1/C(=C\\C=C2/CCC[C@]3(C)[C@@H]([C@H](C)/C=C/[C@@](C)(O)C(C)C)CC[C@@H]23)C[C@@H](O)C[C@@H]1O", "note": "[1α,24(S)-(OH)2D2, 1α,24(S)-dihydroxyvitamin D2]", "values": [
      {"measurement": "binding affinity for the vitamin D serum binding protein (in words)", "setting": "[1]", "result": "relatively poor binding affinity"},
      {"measurement": "binding affinity for the vitamin D serum binding protein (in words)", "setting": "[1]; listed as 1α,24(S)-dihydroxyvitamin D2", "result": "more weakly than does 1,25-(OH)2D3"},
      {"measurement": "binding of DBP relative to 25-OH-D3", "setting": "[1]; vitamin D deficient rat serum", "result": "at least 1000 times weaker"},
      {"measurement": "blood level of metabolite", "setting": "[2]; one day after a single 2 μg dose of 1α-OH-D2", "result": "undetectable"},
      {"measurement": "blood level of metabolite (average)", "setting": "[2]; one day following the last dose of 8 μg/day 1α-OH-D2 for one week", "result": 9, "unit": "pg/mL"},
      {"measurement": "24-hour urinary calcium levels", "setting": "[3]", "result": "modest increases in 24-hour urinary calcium levels"},
      {"measurement": "kidney function (creatinine clearance, blood urea nitrogen)", "setting": "[3]", "result": "does not adversely affect kidney function"},
      {"measurement": "routinely monitored serum parameters", "setting": "[3]", "result": "no effect on any routinely monitored serum parameters"},
      {"measurement": "serum osteocalcin levels", "setting": "[3]", "result": "increases in serum osteocalcin levels"},
      {"measurement": "urinary excretion of hydroxyproline", "setting": "[3]", "result": "nor does it increase urinary excretion of hydroxyproline"},
      {"measurement": "incidence of hypercalcemia or hypercalciuria", "setting": "[4]", "result": "insignificant incidence of hypercalcemia or hypercalciuria"},
      {"measurement": "total body calcium, radial and spinal bone densities relative to placebo", "setting": "[4]", "result": "significantly higher total body calcium, and radial and spinal bone densities"},
      {"measurement": "losses in total body calcium, radial or spinal bone densities relative to baseline", "setting": "[5]", "result": "reduced losses in total body calcium, radial or spinal bone densities"},
      {"measurement": "monitored safety parameters", "setting": "[5]", "result": "confirm the safety of long-term 1α,24(S)-dihydroxyvitamin D2 administration"},
      {"measurement": "intestinal calcium absorption", "setting": "[6]; double-isotope technique", "result": "significantly increases intestinal calcium absorption"},
      {"measurement": "incidence of hypercalcemia", "setting": "[6]; twelve months", "result": "insignificant incidence of hypercalcemia"},
      {"measurement": "serum calcium levels", "setting": "[6]; twelve months", "result": "normalized serum calcium levels"},
      {"measurement": "total body calcium and radial and spinal bone densities relative to baseline", "setting": "[6]; twelve months", "result": "stable values for total body calcium, and stable radial and spinal bone densities"}
    ]}
  ]
}
